The record followed here is PubChem BioAssay (NCI).

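Cultured in 96-well plates, cells were exposed to test compound for 48 hours across five concentrations. TGI: total growth inhibition.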

Some test systems named below: OVCAR-4 ovarian; TK-10 renal; NCI-H226 lung; BT-549 breast; NCI-H23 lung; PC-3 prostate; A549 NSCLC; ACHN renal; SF-268 CNS; A498 renal; M14 melanoma; MDA-N.
What all share (assay): growth of human tumour cells (NCI), 48 h

`NCCSCc1ccccc1Cl`: the TGI in the assay with OVCAR-4 ovarian was more than 100 µM; in the assay with TK-10 renal, 74 µM; in the assay with NCI-H226 lung, more than 100 µM; in the assay with BT-549 breast, more than 100 µM; with NCI-H23 lung, 95 µM; in the assay with PC-3 prostate, 93.8 µM. Also, the TGI with A549 NSCLC was more than 100 µM; in the assay on ACHN renal, more than 100 µM; with SF-268 CNS, more than 100 µM; in the assay on A498 renal, 96.2 µM; in the assay on M14 melanoma, more than 100 µM; in the assay with MDA-N, more than 100 µM.

As to `Cc1sc(C)c2c1C(=O)CC2N` (stereo not given), the TGI in the assay with OVCAR-4 ovarian is more than 75.6 µM; with TK-10 renal it was 33.5 µM; with NCI-H226 lung, more than 54.9 µM; with BT-549 breast, 43.7 µM; in the assay on NCI-H23 lung, more than 96.2 µM; in the assay with PC-3 prostate it was more than 60.6 µM. The TGI was more than 100 µM in the assay on A549 NSCLC; 31.2 µM in the assay with ACHN renal; more than 57.3 µM in the assay with SF-268 CNS; more than 100 µM in the assay with A498 renal; 27.6 µM in the assay on M14 melanoma; more than 57.4 µM in the assay on MDA-N.

On to `O=C(NC(Nc1ccc(F)cc1)(C(F)(F)F)C(F)(F)F)C(C(F)(F)F)C(F)(F)F`, for which the TGI was more than 43.9 µM in the assay on OVCAR-4 ovarian; more than 100 µM with TK-10 renal; more than 100 µM with NCI-H226 lung; more than 100 µM in the assay on BT-549 breast; more than 100 µM in the assay with NCI-H23 lung; more than 100 µM in the assay with PC-3 prostate. Also, the TGI with A549 NSCLC, in the assay with ACHN renal, in the assay with SF-268 CNS, in the assay with A498 renal, with M14 melanoma and in the assay on MDA-N was more than 100 µM in each case.

With `Oc1cccc2cc(Br)cnc12`, the TGI with OVCAR-4 ovarian is more than 30.4 µM; with TK-10 renal, more than 100 µM; in the assay on NCI-H226 lung it was more than 100 µM; in the assay on BT-549 breast it was more than 100 µM; with NCI-H23 lung, more than 72.8 µM; in the assay on PC-3 prostate it was more than 100 µM. The TGI was more than 100 µM with A549 NSCLC; more than 69.2 µM in the assay on ACHN renal; more than 33.9 µM with SF-268 CNS; more than 85 µM in the assay on A498 renal; 51.8 µM with M14 melanoma; more than 100 µM with MDA-N.

Take `COC(=O)C1=CN(C2CCCCC2)C2(c3ccccc3)c3ccccc3C(=O)OC(=O)C12` (stereo not given): the TGI in the assay on OVCAR-4 ovarian, with TK-10 renal, in the assay on NCI-H226 lung, in the assay on BT-549 breast, with NCI-H23 lung and with PC-3 prostate was more than 100 µM each time. The TGI in the assay on A549 NSCLC, in the assay with ACHN renal, in the assay with SF-268 CNS, with A498 renal, with M14 melanoma and in the assay with MDA-N was more than 100 µM throughout.

On to `CN(C)c1ccc(-c2ccc(N(C)C)c3n[se]nc23)c2n[se]nc12`, for which the TGI with OVCAR-4 ovarian, in the assay with TK-10 renal, with NCI-H226 lung, in the assay with BT-549 breast, in the assay with NCI-H23 lung and with PC-3 prostate was more than 100 µM each time. Besides, the TGI with A549 NSCLC, in the assay on ACHN renal, in the assay on SF-268 CNS, in the assay with A498 renal and in the assay on MDA-N was more than 100 µM throughout.

For the molecule `N#Cc1c(Cl)nc2ccccc2c1N=[N+]=[N-]`, the TGI in the assay on OVCAR-4 ovarian turned out to be 4.24 µM; with TK-10 renal, 9.82 µM; in the assay with NCI-H226 lung, 33.1 µM; in the assay on BT-549 breast it was 4.16 µM; in the assay with NCI-H23 lung, 6.3 µM; in the assay with PC-3 prostate, 8.44 µM. Further, the TGI in the assay on A549 NSCLC was 35.3 µM; in the assay with ACHN renal, 4.11 µM; in the assay on SF-268 CNS it was 11.2 µM; in the assay with A498 renal, 36.2 µM; with M14 melanoma it was 6.48 µM; with MDA-N it was 26.8 µM.

Turning to `CN1C=Cc2nccc3cc4c(c1c23)OCO4`, the TGI in the assay with OVCAR-4 ovarian came to 47.5 µM; in the assay with TK-10 renal, 35.4 µM; with NCI-H226 lung it was 43.5 µM; with BT-549 breast, 7.36 µM; in the assay with NCI-H23 lung, 10.3 µM; with PC-3 prostate, 40.9 µM. For the same molecule, the TGI was more than 55.4 µM in the assay with A549 NSCLC; 19.3 µM in the assay with ACHN renal; 11.3 µM with SF-268 CNS; 20.5 µM with A498 renal; 11.7 µM in the assay with M14 melanoma; 8.62 µM with MDA-N.

As to `CC1(C)C2CC3C4CC5(Nc6ccccc6C5N41)[C@]3(C)CC2=O` (stereo not given in full), the TGI in the assay on OVCAR-4 ovarian, with TK-10 renal, in the assay on NCI-H226 lung, with BT-549 breast, with NCI-H23 lung and in the assay with PC-3 prostate was more than 50 µM in each case. Also, the TGI with A549 NSCLC, in the assay with ACHN renal, in the assay on SF-268 CNS, with A498 renal and with MDA-N was more than 50 µM throughout.

Regarding `COC(=O)[C@]1(c2cc3ccccc3[nH]2)CC2CN(CC(=O)N(C)OC)C1CC2(OC)OC` (stereo not given in full), the TGI was more than 100 µM with OVCAR-4 ovarian; more than 100 µM in the assay on TK-10 renal; more than 100 µM in the assay on NCI-H226 lung; 59.8 µM with BT-549 breast; more than 100 µM in the assay with NCI-H23 lung; 71.9 µM in the assay on PC-3 prostate. Also, the TGI in the assay with A549 NSCLC, in the assay on ACHN renal, in the assay on SF-268 CNS, in the assay on A498 renal, in the assay on M14 melanoma and in the assay with MDA-N was more than 100 µM throughout.

Regarding `O=C1c2ccccc2CC12Cc1ccccc1C2`, the TGI in the assay with OVCAR-4 ovarian is more than 100 µM; in the assay with TK-10 renal it was 97.4 µM; with NCI-H226 lung it was more than 100 µM; with BT-549 breast it was more than 100 µM; in the assay on NCI-H23 lung, more than 100 µM; in the assay with PC-3 prostate, more than 100 µM. Moreover, the TGI in the assay on A549 NSCLC, in the assay on ACHN renal, in the assay with SF-268 CNS, in the assay on A498 renal, with M14 melanoma and in the assay with MDA-N was more than 100 µM each time.
